{
  "source": "patent US20200138081A1",
  "about": "“Biologically active food additive for preventing and treating acute respiratory diseases and flu” (Parapharm LLC, priority 2013, published 2020)",
  "assay_type_in_all_cases": "in vivo, human",
  "key": {"[1]": {"system": "IgM", "test": "Example 6 ADBH, 25(OH)D and combination, IgM (immunoturbidimetric)", "text": "(§1) The object was to study the effect of active metabolites of vitamin D, as exemplified by 25 (OH)D, on the immune status in participants, judging by the level of immunoglobulines IgG, IgA, and IgM. 32 participants in the age range between 38 and 62 (23 females and 9 males) residing in Penza had no acute diseases and were apparently healthy. The immune status was examined before the therapy started and 30 days after that. […] Immunoglobulines were detected by an immunoturbidimetric method, using an assay kit of DiaSys Diagnostic Systems (Germany).\n(§2) Table 3 presents mean values (M±m) of specific antibody response for main immunoglobulin classes IgG, IgA, and IgM."}, "[2]": {"system": "IgG", "test": "Example 6 ADBH, 25(OH)D and combination, IgG (immunoturbidimetric)", "text": "as §1, §2"}, "[3]": {"system": "IgM", "test": "Example 5 comparative effect of ingredients and additive, serum IgM", "text": "(§3) The object of the study lied in analyzing comparative effect of main ingredients of the additive (the ADBH and vitamin D, separately) on the immune system of the body by variations of the main classes of immunoglobulins IgG, IgA, and IgM in blood serum. As stated previously, IgG is the main serum immunoglobuline of a healthy human amounting to 70-75% of the whole immunoglobulin fraction. It is especially active in the immune response. The serous IgA makes up to 15-20% of the whole immunoglobulin fraction. […] The IgM immunoglobulins are capable of neutralizing foreign particles, effectively activating complement, triggering defensive response mechanisms in the body.\n(§4) 29 participants, 37 to 60 years old, residing in the city of Penza and suffering from frequent catarrhal diseases were examined, and low levels of immunoglobulin reference values were uncovered. In view of the task set, immunopotentiation was administered to them. Depending on the method of immune correction, the participants were divided into three groups:1st group—nine persons took a tablet of the ADBH (150 mg) twice a day for 30 days, 2nd group—8 persons took a tablet of vitamin D3 (500 IE) twice a day for 30 days, and 3rd group—12 persons took a tablet of the proposed additive (150 mg of the ADBH and 500 IE of vitamin D3) by one tablet twice a day for 30 days."}, "[4]": {"system": "ARD", "test": "Example 5 catamnesis, ARD during six months after the study", "conditions": "during six months after the study was over", "experimental": "as §4\nIn other words, an unexpected result of the combined use of the ingredients dramatically differs from that where the ingredients are employed individually. […] The result can probably be explained by the presence of an enhancer of one ingredient of the proposed additive in the other which is on full display only when the both ingredients are used jointly."}, "[5]": {"system": "IgA", "test": "Example 5 comparative effect of ingredients and additive, serum IgA", "text": "as §3, §4"}, "[6]": {"system": "IgG", "test": "Example 5 comparative effect of ingredients and additive, serum IgG", "text": "as §3, §4"}, "[7]": {"conditions": "After one-month treatment, twice a day (ADBH 150 mg, 25(OH)D 50 IE; or both in one tablet)"}, "[8]": {"conditions": "Before, apparently healthy participants 38 to 62 years"}, "[9]": {"conditions": "After, one tablet twice a day for 30 days (ADBH 150 mg; vitamin D3 500 IE; additive 150 mg ADBH + 500 IE D3)"}, "[10]": {"conditions": "Before, participants 37 to 60 years with frequent catarrhal diseases"}},
  "data": [
    {"smiles": "C=C1CC[C@H](O)C/C1=C/C=C1\\CCC[C@]2(C)[C@@H]([C@H](C)CCCC(C)(C)O)CC[C@@H]12", "note": "[25 (OH)D]", "values": [
      {"measurement": "IgM, M ± m", "setting": "[1]; [7]", "value": 1.82},
      {"measurement": "IgM, M ± m", "setting": "[1]; [8]", "value": 1.91},
      {"measurement": "IgG, M ± m", "setting": "[2]; [7]", "value": 12.39},
      {"measurement": "IgG, M ± m", "setting": "[2]; [8]", "value": 12.21}
    ]},
    {"smiles": "C=C1CC[C@H](O)C/C1=C/C=C1\\CCC[C@]2(C)[C@@H]([C@H](C)CCCC(C)C)CC[C@@H]12", "note": "[vitamin D3]", "values": [
      {"measurement": "IgM, M ± m", "setting": "[3]; [9]", "value": 1.82},
      {"measurement": "IgM, M ± m", "setting": "[3]; [10]", "value": 1.91},
      {"measurement": "falling ill with ARD in catamnesis", "setting": "[4]", "value": "had those diseased"},
      {"measurement": "IgA, M ± m", "setting": "[5]; [9]", "value": 1.93},
      {"measurement": "IgA, M ± m", "setting": "[5]; [10]", "value": 1.81},
      {"measurement": "IgG, M ± m", "setting": "[6]; [9]", "value": 12.27},
      {"measurement": "IgG, M ± m", "setting": "[6]; [10]", "value": 12.41}
    ]}
  ]
}
